Assays:
[1] = tested on: primary human umbilical vein endothelial cells (HUVEC); test: In vitro transduction analysis (β-galactosidase, X-gal stain) on HUVEC; format: cell-based
Experimental: (§1) S8 cells are A549 cells stably transfected with adenoviral E1 and E2a genes under separate dexamethasone-inducible promoters (Gorziglia et al., 1996). S8 cells are cultured in IMEM (Biofluids, Rockville, Md.) with 10% heat inactivated fetal bovine serum (HIFBS). For virus production, the cells are cultured with 0.3 uM dexamethasone to induce the expression of E1 and E2a genes. H460 cells are a human non-small cell lung carcinoma (ATCC, Manassas, Va.) and are cultured in RPMI Medium 1640 (Life Technologies, Gaithersburg, Md.) with 10% HIFBS. PC3 cells are a human prostate carcinoma cell line (ATCC) and are cultured in RPMI Medium 1640 with 10% HIFBS. HeLa cells are a human cervical carcinoma cell line (ATCC) and are cultured in DMEM with 10% HIFBS. Primary human endothelial cells, in particular Human Umbilical Vein Endothelial Cells (HUVECs) are obtained from the Clonetics Corporation (Walkerville, Md.: AC-7018). The cells are cultured in the recommended medium.
(§2) The transduction efficiency of Av3nBgPD1 is surveyed using primary human umbilical vein endothelial cells (HUVEC) and on three human carcinoma cell lines including HeLa, PC3, and H460 cells. […] The percentage of transduction is determined by light microscopy by counting the number of positively transduced blue cells per field as described previously (Stevenson, et. al, 1997).

[2] = tested on: HeLa cells; test: In vitro transduction analysis (β-galactosidase, X-gal stain) on HeLa; format: cell-based, human
Experimental: as §1, §2

[3] = tested on: PC3 cells; test: In vitro transduction analysis (β-galactosidase, X-gal stain) on PC3; format: cell-based, human
Experimental: as §1, §2

**Q.** What does the source list for “CPDLHHHMC (Artificial sequence derived from human and animal adenovirus peptide sequences for binding to endothelial cell surface molecules) [PD1]”?
**A.** transduction compared with Av3nBg control, in words [1]: enhances transduction; transduction compared with Av3nBg control, in words [2]: offered no advantage; transduction compared with Av3nBg control, in words [3]: offered no advantage

From patent publication US20060223756A1, “Endothelial cell specifically binding peptides” (priority 2002, published 2006)
